Results on four compounds are retold here after patent US12559495B2 (Agency for Science, Technology and Research, priority 2013, dated 2026).

Molecules are shown by their SMILES.

What all share (type): cell-based
The subject of one assay is HEK293-STF3A cells. The assay is described as follows: STF3A assay (luciferase reporter). As to conditions: Homo sapiens, 24 h, 1 day of treatment. The method, boiled down:
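HEK293 cells stably carrying the STF luciferase reporter and expressing Wnt3A, seeded at 2×10^4 cells/well and grown overnight. Serially diluted compound (final 50 μM to 1.5 nM) applied for 1 day at 37 °C. Steady-Glo luciferase luminescence read after 10 min at room temperature.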
A general note: A reporter such as luciferase makes a cellular process visible.

For assay [1], the system named is p-LRP6 (Ser1490). The assay is described as follows: Phospho-LRP6 assay, time course, PA-1 teratocarcinoma cells. The method, then: FIGS. 3A-3B show the time-course of p-LRP6 (Ser 1490) inhibition (in vitro) induced by porcupine inhibitors. FIG. 3A is a Western blot analysis of PA-1 teratocarcinoma cells treated with 2 μM of Compound 5, for the time points indicated with antibodies as indicated on the left. As a control, cells treated with either growth medium alone or the vehicle (DMSO) for 48 h were included. FIG. 3B is a densitometric analysis of pLRP6 relative to total LRP6.
The present target efficacy biomarker assay measures a decrease in levels of p-LRP6 (i.e. phosphorylated LRP-6) (Ser1490) upon treatment with a porcupine inhibitor (Compound 5). […] The inhibitory effect remains up to 72 h (data not shown) in the presence of the compound and up to 12 h after the compound has been removed (data not shown).

Assay [2] concerns p-LRP6 (Ser1490). The assay is described as follows: Phospho-LRP6 assay, dose titration, HPAF-II pancreatic adenocarcinoma cells. Here is the method:
FIGS. 4A-4B show pLRP6 in vitro inhibition-dose titration. FIG. 4A is a Western blot analysis of HPAF-II pancreatic adenocarcinoma cells treated with the indicated doses of Compound 5 for 6 h with antibodies as indicated on the left. The […] controls are a cell lysate of untreated STF3A cells and cells treated with vehicle only (DMSO). FIG. 4B is a densitometric analysis of pLRP6 relative to total LRP6.
While 2 μM led to 50-60% inhibition after 6 h of in vitro treatment, 3.3 nM of Compound 5 still inhibited p-LRP6 (Ser1490) by about 20% in this assay (FIG. 4).

In turn, `Cn1c(=O)c2c(ncn2CC(=O)Nc2ccc(-c3ccccc3)nn2)n(C)c1=O` [Compound 5, 2-(1,3-dimethyl-2,6-dioxo-1,2,3,6-tetrahydro-7H-purin-7-yl)-N-(6-phenylpyridazin-3-yl)acetamide] displayed a 50% inhibitory concentration (IC50) in the assay with HEK293-STF3A cells below 0.1 µM. In addition, the “reduction in p-LRP6” value with p-LRP6 (Ser1490) [1] (2 μM, from 4 h onwards, in vitro (FIG. 3)) is listed as “greater than 50%”. Also, in the assay on p-LRP6 (Ser1490) [1] (data not shown), the “duration of inhibitory effect after the compound has been removed” value is listed as “up to 12 h” and the “duration of inhibitory effect in the presence of the compound” value is “up to 72 h”. Moreover, the inhibition at 0.0033 µM in the assay with p-LRP6 (Ser1490) [2] (Homo sapiens, HPAF-II, 3.3 nM, 6 h (FIG. 4)) was around 20%. In the assay with p-LRP6 (Ser1490) [2] (Homo sapiens, HPAF-II, 2 μM, after 6 h of in vitro treatment (FIG. 4)), this compound gave an inhibition at 2 µM of 50 to 60%. In addition, the “inhibition of p-LRP6” value in the assay on p-LRP6 (Ser1490) [2] (concentrations lower than 3.3 nM, HPAF-II cells (data not shown)) is “did not inhibit”.
Regarding `C[C@H](C(=O)Nc1ccc(-c2ccccc2)nn1)n1cnc2c1c(=O)n(C)c(=O)n2C` [Compound 80, (R)-2-(1,3-dimethyl-2,6-dioxo-2,3-dihydro-1H-purin-7(6H)-yl)-N-(6-phenylpyridazin-3-yl)propanamide], the IC50 with HEK293-STF3A cells was above 10 µM.
The same measure, in the same setting: in the case of `Cc1ccccc1-c1ccc(NC(=O)Cn2cnc3c2c(=O)n(C)c(=O)n3C)cc1` [Compound 28, 2-(1,3-dimethyl-2,6-dioxo-2,3-dihydro-1H-purin-7(6H)-yl)-N-(2′-methylbiphenyl-4-yl)acetamide] it was above 10 µM; in that of `Cn1c(=O)c2c(ncn2CC(=O)Nc2ccc(N3CCN(Cc4cccc(F)c4)CC3)cn2)n(C)c1=O` [Compound 57, 2-(1,3-dimethyl-2,6-dioxo-2,3-dihydro-1H-purin-7(6H)-yl)-N-(5-(4-(3-fluorobenzyl)piperazin-1-yl)pyridin-2-yl)acetamide], below 0.1 µM.

The term IC50 denotes the point on the concentration scale where inhibition reaches its midpoint. Low readings indicate greater potency, high ones weaker potency. For orientation: inhibition means the change of the read-out against control, counted positive when it falls. A low value points to little suppression.
